Source: patent publication US6075054A, “Ortho-substituted benzoylguanidines, process for their preparation, their use as a medicament or diagnostic, and medicament comprising them” (Hoechst Aktiengesellschaft, priority 1997, dated 2000)
Structures can show the parent of a compound that is named as a salt.

Target: T1, Na^+ /H^+ exchanger of rabbit erythrocytes (Oryctolagus cuniculus, UniProt P23791)
T1 construct: endogenous in cells; host or cells: erythrocytes in whole blood of White New Zealand rabbits (Ivanovas) fed 2% cholesterol
T1 sequence (P23791 whole entry): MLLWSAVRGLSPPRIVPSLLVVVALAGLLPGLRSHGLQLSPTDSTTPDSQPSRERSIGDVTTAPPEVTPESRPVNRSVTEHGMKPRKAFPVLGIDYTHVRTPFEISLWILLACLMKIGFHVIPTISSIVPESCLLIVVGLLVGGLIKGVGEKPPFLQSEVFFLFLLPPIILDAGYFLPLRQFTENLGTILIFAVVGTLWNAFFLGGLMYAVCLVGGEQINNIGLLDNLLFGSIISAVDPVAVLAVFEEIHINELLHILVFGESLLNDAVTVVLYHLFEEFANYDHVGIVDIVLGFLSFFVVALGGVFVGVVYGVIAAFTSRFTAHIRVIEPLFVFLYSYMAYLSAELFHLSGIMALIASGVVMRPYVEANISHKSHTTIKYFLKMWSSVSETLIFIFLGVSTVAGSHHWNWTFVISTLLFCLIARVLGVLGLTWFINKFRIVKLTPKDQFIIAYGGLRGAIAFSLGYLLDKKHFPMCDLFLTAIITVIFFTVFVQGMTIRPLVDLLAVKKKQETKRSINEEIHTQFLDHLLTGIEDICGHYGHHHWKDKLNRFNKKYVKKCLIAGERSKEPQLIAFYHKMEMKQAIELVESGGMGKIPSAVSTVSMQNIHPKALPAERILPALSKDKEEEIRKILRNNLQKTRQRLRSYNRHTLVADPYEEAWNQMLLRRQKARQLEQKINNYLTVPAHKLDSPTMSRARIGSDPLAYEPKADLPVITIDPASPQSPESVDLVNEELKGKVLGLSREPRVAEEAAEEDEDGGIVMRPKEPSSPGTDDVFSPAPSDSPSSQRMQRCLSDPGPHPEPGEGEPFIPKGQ
Test: Inhibition of the Na^+ /H^+ exchanger of rabbit erythrocytes (amiloride-sensitive sodium influx, flame photometry)
Type: cell-based, rabbit (White New Zealand)
Details: erythrocytes of rabbits on 2% cholesterol diet; hyperosmolar salt-sucrose medium, pH 7.4, 37° C.
From the text: Inhibition of the Na^+ /H^+ exchanger of rabbit erythrocytes White New Zealand rabbits (Ivanovas) received a standard diet with 2% cholesterol for six weeks in order to activate the Na^+ /H^+ exchange and thus to be able to determine the Na^+ -influx into the erythrocytes via Na^+ /H^+ exchange by flame photometry. The blood was taken from the auricular arteries and rendered incoagulable by 25 IU of potassium-heparin. A part of each sample was used for the duplicate determination of the hematocrits by centrifugation. Aliquots of 100 μl in each case were used for the measurement of the Na^+ starting content of the erythrocytes.
In order to determine the amiloride-sensitive sodium influx, 100 μl of each blood sample were incubated in 5 ml in each case of a hyperosmolar salt-sucrose medium (mmol/l: 140 NaCl, 3 KCl, 150 sucrose, 0.1 ouabain, 20 tris-hydroxymethylaminomethane) at pH 7.4 and 37° C. The erythrocytes were then washed three times with ice-cold MgCl2 -ouabain solution (mmol/l: 112 MgCl2, 0.1 ouabain) and hemolyzed in 2.0 ml of distilled water. The intracellular sodium content was determined by flame photometry.
The Na^+ net influx was calculated from the difference between sodium starting values and the sodium content of the erythrocytes after incubation. […]

Cc1cc(C(C)CO)c(C(F)(F)F)cc1C(=O)N=C(N)N (racemic) [Example 1, hydrochloride]
IC50: 1.2 nM
